Earlier results on 24 compounds are cited in patent US11599023B2, “Photosensitive resin composition, organic EL element barrier rib, and organic EL element” (SHOWA DENKO K.K., priority 2018, dated 2023).

Assay in series [1]: not given
The source holds these as a separate data set.

Setting [2] is: Table 1, at 20° C. and 1 atm, cited in Scifinder.
The mark [3] stands for this setting: Table 2, of the low molecular weight organic compound (B), cited in Scifinder.
[4] abbreviates: at 20° C. and 1 atm, SciFinder database.
The mark [5] stands for this setting: Table 1, at 25° C., cited in Scifinder.

Where two headings read alike, the source gives them in different places.

In the case of `Oc1ccc(O)c(O)c1` [1,2,4-Benzenetriol], the Molar volume was 84.7 cm^3/mol under setting [2], 84.7 cm^3/mol under setting [3] and 84.7 cm^3/mol under setting [4]. Moreover, the pKa is 9.58 in series [1] (setting [5]); 9.58 in series [1] (setting [3]); 9.58 in series [1] (at 25° C., SciFinder database).

As for `O=C(c1ccc(O)cc1)c1ccc(O)c(O)c1O` [2,3,4,4′-Tetrahydroxybenzophenone, 2,3,4,4′-Tetrahydroxybenzophenone, reference compound], the Molar volume is listed as 161.2 cm^3/mol under setting [2] and 161.2 cm^3/mol under setting [3]. Besides, the pKa in series [1] (setting [5]) and in series [1] (setting [3]) was 7.38 each time.

Regarding `O=C(O)c1ccc(O)c(O)c1O` [2,3,4-Trihydroxybenzoic acid], the Molar volume by setting is: under setting [2], 97.2 cm^3/mol; under setting [3], 97.2 cm^3/mol; under setting [4], 97.2 cm^3/mol. Moreover, the pKa is 3.30 in series [1] (setting [5]); 3.30 in series [1] (setting [3]); 3.3 in series [1] (at 25° C., SciFinder database).

On to `O=C(O)c1cccc(O)c1O` [2,3-Dihydroxybenzoic acid], for which the Molar volume was 98.8 cm^3/mol under setting [2], 98.8 cm^3/mol under setting [3] and 98.8 cm^3/mol under setting [4]. Moreover, the pKa in series [1] (setting [5]) is listed as 2.96; in series [1] (setting [3]), 2.96; in series [1] (at 25° C., SciFinder database), 2.96.

In the case of `O=C(O)c1ccc(O)cc1O` [2,4-Dihydroxybenzoic acid], the Molar volume is recorded as 98.8 cm^3/mol under setting [2], 98.8 cm^3/mol under setting [3] and 98.8 cm^3/mol under setting [4]. In addition, the pKa is on record as 3.32 in series [1] (setting [5]); 3.32 in series [1] (setting [3]); 3.32 in series [1] (at 25° C., SciFinder database).

As to `O=C(O)c1cc(O)ccc1O` [2,5-Dihydroxybenzoic acid], the Molar volume under setting [2] is 98.8 cm^3/mol, the Molar volume under setting [3] is recorded as 98.8 cm^3/mol and the Molar volume under setting [4] was 98.8 cm^3/mol.

Turning to `O=C(O)c1cc(O)cc(O)c1` [3,5-Dihydroxybenzoic acid], the Molar volume is 98.8 cm^3/mol under setting [2], 98.8 cm^3/mol under setting [3] and 98.8 cm^3/mol under setting [4]. Also, the pKa in series [1] (setting [5]) is 3.96; in series [1] (setting [3]), 3.96; in series [1] (at 25° C., SciFinder database), 3.96.

As for `O=C(O)c1cc(O)c(O)c(O)c1` [Gallic acid], the Molar volume under setting [2] was 97.2 cm^3/mol, the Molar volume under setting [3] was 97.2 cm^3/mol and the Molar volume under setting [4] is given as 97.2 cm^3/mol.

In the case of `O=C(O)c1cccc(C(=O)O)c1C(=O)O` [Hemimellitic acid], the Molar volume is, setting by setting: under setting [2], 127.0 cm^3/mol; under setting [3], 127.0 cm^3/mol; under setting [4], 127 cm^3/mol.

For the compound `Oc1ccc(O)c2c(O)c3ccccc3c(O)c12` [Leucoquinizarin, reference compound], the Molar volume under setting [2] is recorded as 151.3 cm^3/mol and the Molar volume under setting [3] is reported as 151.3 cm^3/mol. Besides, the pKa in series [1] (setting [5]) and in series [1] (setting [3]) was 8.11 throughout.

Turning to `O=C1OC(c2ccc(O)cc2)(c2ccc(O)cc2)c2ccccc21` [Phenolphthalein, reference compound], the Molar volume under setting [2] is listed as 229.7 cm^3/mol and the Molar volume under setting [3] is given as 229.7 cm^3/mol. Further, the pKa in series [1] (setting [5]) and in series [1] (setting [3]) was 9.23 each time.

As to `O=C(O)c1ccccc1C(c1ccc(O)cc1)c1ccc(O)cc1` [Phenolphthalin, reference compound], the Molar volume by setting is: under setting [2], 242.0 cm^3/mol; under setting [3], 242.0 cm^3/mol. Moreover, the pKa in series [1] (setting [5]) and in series [1] (setting [3]) was 3.96 each time.

Take `Oc1cc(O)cc(O)c1` [Phloroglucinol]: the Molar volume reads like this: under setting [2], 84.7 cm^3/mol; under setting [3], 84.7 cm^3/mol; under setting [4], 84.7 cm^3/mol. The pKa is on record as 9.06 in series [1] (setting [5]); 9.06 in series [1] (setting [3]); 9.06 in series [1] (at 25° C., SciFinder database).

For the compound `CCCOC(=O)c1cc(O)c(O)c(O)c1` [Propyl gallate, reference compound], the Molar volume is 155.6 cm^3/mol under setting [2] and 155.6 cm^3/mol under setting [3].

Take `Oc1cccc(O)c1O` [Pyrogallol]: the Molar volume under setting [2] is given as 84.7 cm^3/mol, the Molar volume under setting [3] is given as 84.7 cm^3/mol and the Molar volume under setting [4] is recorded as 84.7 cm^3/mol.

Consider `O=C(O)c1cc(C(=O)O)c(C(=O)O)cc1C(=O)O` [Pyromellitic acid, reference compound], for which the Molar volume under setting [2] is 139.5 cm^3/mol and the Molar volume under setting [3] is 139.5 cm^3/mol.

Turning to `Oc1ccccc1O` [catechol], under setting [4], the Molar volume is 86.2 cm^3/mol.

As for `Oc1ccc(O)cc1` [hydroquinone], the Molar volume under setting [4] is recorded as 86.2 cm^3/mol. Also, in series [1] (at 25° C., SciFinder database), the pKa is listed as 9.58.

On to `O=C(O)c1cccc(C(=O)O)c1` [isophthalic acid], for which the Molar volume under setting [4] is 114.4 cm^3/mol.

`O=C(O)c1ccccc1C(=O)O` [phthalic acid]: under setting [4], the Molar volume is 114.4 cm^3/mol.

On to `Oc1cccc(O)c1` [resorcinol], for which, under setting [4], the Molar volume is 86.2 cm^3/mol. The pKa in series [1] (at 25° C., SciFinder database) is 9.45.

Turning to `O=C(O)c1ccc(C(=O)O)cc1` [terephthalic acid], the Molar volume under setting [4] was 114.4 cm^3/mol.

As to `O=C(O)c1ccc(C(=O)O)c(C(=O)O)c1` [trimellitic acid], under setting [4], the Molar volume was 127.0 cm^3/mol.

Regarding `O=C(O)c1cc(C(=O)O)cc(C(=O)O)c1` [trimesic acid], the Molar volume under setting [4] is given as 127.0 cm^3/mol.

For orientation: pKa means the negative logarithm of the acid dissociation constant.
